Results on 13 molecules are retold here after patent US8901118B2, “Compounds and methods for kinase modulation, and indications therefor” (Plexxikon Inc., priority 2010, dated 2014).

Holding throughout (format): cell-based
In one assay the target is T1, BCR-NTRK1 BaF3 cells (Homo sapiens, UniProt P04629).
T1 construct: fused on or other part: P11274 (Breakpoint cluster region protein)
Kind of assay: BaF3 BCR-NTRK1 cell proliferation assay (ATPlite). The settings on record: read-out: Inhibition of Cell Proliferation IC50, BCR/BaF3 TrkA. In short, it runs like this: (§1)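 ATP-based luminescence (ATPlite), read after 10 min at room temperature, served as a proxy for cell number, and IC50 was fitted against compound concentration. Before that, cells were treated for 3 days with an 8-point 1:3 dilution series starting at 10 μM. BaF3 cells were plated at 10,000/well without IL-3, and MV-4-11 cells at 25,000/well.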

The target in another assay is T2, BCR-KIT BaF3 cells (Homo sapiens, UniProt P10721).
T2 construct: fused on or other part: P11274 (Breakpoint cluster region protein)
T2 sequence (P10721 589-937): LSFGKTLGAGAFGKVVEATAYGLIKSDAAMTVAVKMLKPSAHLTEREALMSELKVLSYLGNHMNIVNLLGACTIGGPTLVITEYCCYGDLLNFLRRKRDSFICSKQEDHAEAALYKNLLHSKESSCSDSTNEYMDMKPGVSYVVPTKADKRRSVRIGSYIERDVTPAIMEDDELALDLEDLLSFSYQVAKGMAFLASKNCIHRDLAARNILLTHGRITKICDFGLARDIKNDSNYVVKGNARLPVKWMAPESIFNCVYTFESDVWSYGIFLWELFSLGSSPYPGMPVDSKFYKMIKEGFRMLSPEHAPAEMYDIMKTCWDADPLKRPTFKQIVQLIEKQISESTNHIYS
The assay is described as follows: BaF3 BCR-KIT cell proliferation assay (ATPlite). The following applies: read-out: Inhibition of Cell Proliferation IC50, BCR/BaF3 Kit. In short, it runs like this: as §1

For a further assay, the target named is T3, BCR-FMS BaF3 cells (Homo sapiens, UniProt P07333).
T3 construct: fused on or other part: P11274 (Breakpoint cluster region protein)
T3 sequence (P07333 582-910): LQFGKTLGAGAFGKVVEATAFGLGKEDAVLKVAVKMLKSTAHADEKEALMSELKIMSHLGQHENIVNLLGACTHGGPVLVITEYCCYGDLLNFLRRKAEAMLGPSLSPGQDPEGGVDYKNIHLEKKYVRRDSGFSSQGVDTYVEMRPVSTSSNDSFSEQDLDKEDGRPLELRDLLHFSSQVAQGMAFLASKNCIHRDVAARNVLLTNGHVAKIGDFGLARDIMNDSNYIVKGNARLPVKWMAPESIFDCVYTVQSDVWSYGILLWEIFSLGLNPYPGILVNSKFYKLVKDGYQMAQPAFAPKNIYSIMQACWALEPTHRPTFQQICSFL
Kind of assay: BaF3 BCR-FMS cell proliferation assay (ATPlite). The following applies: read-out: Inhibition of Cell Proliferation IC50, BCR/BaF3 Fms. The gist of the method:
as §1
On the technique in general: ATP-based viability assays read luminescence as a measure of living cells.

The target of the next assay is T4, BCR-NTRK2 BaF3 cells (Homo sapiens, UniProt Q16620).
T4 construct: fused on or other part: P11274 (Breakpoint cluster region protein)
T4 sequence (Q16620 538-807): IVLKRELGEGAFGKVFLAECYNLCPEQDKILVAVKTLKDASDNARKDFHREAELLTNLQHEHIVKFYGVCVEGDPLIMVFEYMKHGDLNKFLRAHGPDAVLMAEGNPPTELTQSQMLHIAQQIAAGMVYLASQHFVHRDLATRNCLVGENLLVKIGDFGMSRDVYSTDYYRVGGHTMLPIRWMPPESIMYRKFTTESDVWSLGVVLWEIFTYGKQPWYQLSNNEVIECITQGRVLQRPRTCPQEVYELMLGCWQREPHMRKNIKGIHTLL
The assay is described as follows: BaF3 BCR-NTRK2 cell proliferation assay (ATPlite). The settings on record: read-out: Inhibition of Cell Proliferation IC50, BCR/BaF3 TrkB. In short, it runs like this: as §1

The structures appear in SMILES notation.

T1 sequence (P04629 510-781): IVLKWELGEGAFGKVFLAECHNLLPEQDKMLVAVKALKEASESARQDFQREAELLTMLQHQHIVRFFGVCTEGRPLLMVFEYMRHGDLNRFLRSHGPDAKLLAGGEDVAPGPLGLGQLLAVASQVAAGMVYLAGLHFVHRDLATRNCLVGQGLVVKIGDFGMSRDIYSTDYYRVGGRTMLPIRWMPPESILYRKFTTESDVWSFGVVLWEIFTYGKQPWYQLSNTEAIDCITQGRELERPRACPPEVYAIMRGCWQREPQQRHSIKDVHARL

On to `Clc1cnc2[nH]cc(Cc3cnc(NC4CCC4)nc3)c2c1` [Compound P-3007, [5-(5-Chloro-1H-pyrrolo[2,3-b]pyridin-3-ylmethyl)-pyrimidin-2-yl]-cyclobutyl-amine], for which the IC50 at BCR-NTRK1 BaF3 cells was more than 10000 nM; at BCR-KIT BaF3 cells, more than 10000 nM; on BCR-FMS BaF3 cells, less than 1000 nM; at BCR-NTRK2 BaF3 cells, more than 10000 nM.
For the molecule `Cc1cnc2[nH]cc(Cc3ccc(NC4CCCCC4)nc3F)c2c1` [Compound P-3008, cyclohexyl-[6-fluoro-5-(5-methyl-1H-pyrrolo[2,3-b]pyridin-3-ylmethyl)-pyridin-2-yl]-amine], the IC50 was more than 1000 nM at BCR-KIT BaF3 cells and less than 100 nM on BCR-FMS BaF3 cells.
As for `O=C(c1ccc(Nc2ccc(C3CC3)nc2)nc1F)c1c[nH]c2ncnc(C3CC3)c12` [Compound P-4040, [6-(6-Cyclopropyl-pyridin-3-ylamino)-2-fluoro-pyridin-3-yl]-(4-cyclopropyl-7H-pyrrolo[2,3-d]pyrimidin-5-yl)-methanone], the IC50 at BCR-NTRK1 BaF3 cells was less than 10 nM; on BCR-KIT BaF3 cells, less than 100 nM; at BCR-FMS BaF3 cells, less than 100 nM; on BCR-NTRK2 BaF3 cells, less than 10 nM.
Consider `Fc1nc(Nc2ccc(C3CC3)nc2)ccc1Cc1c[nH]c2ncnc(C3CC3)c12` [Compound P-4041, (6-Cyclopropyl-pyridin-3-yl)-[5-(4-cyclopropyl-7H-pyrrolo[2,3-d]pyrimidin-5-ylmethyl)-6-fluoro-pyridin-2-yl]-amine], for which the IC50 was less than 10 nM at BCR-NTRK1 BaF3 cells, less than 100 nM at BCR-KIT BaF3 cells, less than 10 nM on BCR-FMS BaF3 cells and less than 10 nM at BCR-NTRK2 BaF3 cells.
Consider `Nc1ncnc2[nH]cc(C(=O)c3ccc(NC4CCC(F)(F)CC4)nc3Cl)c12` [Compound P-4046, (4-amino-7H-pyrrolo[2,3-d]pyrimidin-5-yl)-[2-chloro-6-[(4,4-difluorocyclohexyl)amino]-3-pyridyl]methanone], for which the IC50 at BCR-NTRK1 BaF3 cells is less than 1000 nM; on BCR-KIT BaF3 cells, less than 1000 nM; at BCR-FMS BaF3 cells, less than 100 nM; at BCR-NTRK2 BaF3 cells it was less than 1000 nM.
On to `CC(C)=CNc1ncnc2[nH]cc(C(=O)c3ccc(NC4CCC(F)(F)CC4)nc3Cl)c12` [Compound P-4047, [2-chloro-6-[(4,4-difluorocyclohexyl)amino]-3-pyridyl]-[4-(2-methylprop-1-enylamino)-7H-pyrrolo[2,3-d]pyrimidin-5-yl]methanone], for which the IC50 on BCR-NTRK1 BaF3 cells, at BCR-KIT BaF3 cells, at BCR-FMS BaF3 cells and on BCR-NTRK2 BaF3 cells was more than 1000 nM in each case.
Take `Nc1ncnc2[nH]cc(C(=O)c3ccc(Nc4ccc(C5CC5)nc4)nc3F)c12` [Compound P-4048, (4-amino-7H-pyrrolo[2,3-d]pyrimidin-5-yl)-[6-[(6-cyclopropyl-3-pyridyl)amino]-2-fluoro-3-pyridyl]methanone]: the IC50 is less than 1000 nM on BCR-NTRK1 BaF3 cells, less than 1000 nM on BCR-KIT BaF3 cells, less than 10 nM on BCR-FMS BaF3 cells and less than 10 nM at BCR-NTRK2 BaF3 cells.
Regarding `CC(C)(O)CNc1ncnc2[nH]cc(C(=O)c3ccc(Nc4ccc(C5CC5)nc4)nc3F)c12` [Compound P-4049, [6-[(6-cyclopropyl-3-pyridyl)amino]-2-fluoro-3-pyridyl]-[4-[(2-hydroxy-2-methyl-propyl)amino]-7H-pyrrolo[2,3-d]pyrimidin-5-yl]methanone], the IC50 on BCR-NTRK1 BaF3 cells, at BCR-KIT BaF3 cells, at BCR-FMS BaF3 cells and on BCR-NTRK2 BaF3 cells was less than 1000 nM in each case.
In the case of `CCNc1ncnc2[nH]cc(C(=O)c3ccc(NC4CCC(F)(F)CC4)nc3Cl)c12` [Compound P-4050, [2-chloro-6-[(4,4-difluorocyclohexyl)amino]-3-pyridyl]-[4-(ethylamino)-7H-pyrrolo[2,3-d]pyrimidin-5-yl]methanone], the IC50 was less than 1000 nM at BCR-NTRK1 BaF3 cells, more than 1000 nM on BCR-KIT BaF3 cells, less than 1000 nM on BCR-FMS BaF3 cells and less than 1000 nM at BCR-NTRK2 BaF3 cells.
For `CCNc1ncnc2[nH]cc(C(=O)c3cnc(NC4CCC(F)(F)CC4)c(F)c3)c12` [Compound P-4051, [6-[(4,4-difluorocyclohexyl)amino]-5-fluoro-3-pyridyl]-[4-(ethylamino)-7H-pyrrolo[2,3-d]pyrimidin-5-yl]methanone], the IC50 on BCR-NTRK1 BaF3 cells is less than 1000 nM; at BCR-KIT BaF3 cells, more than 1000 nM; at BCR-FMS BaF3 cells it was less than 1000 nM; at BCR-NTRK2 BaF3 cells it was less than 10 nM.
As for `O=C(c1cnc(NC2CCC(F)(F)CC2)c(F)c1)c1c[nH]c2ncnc(NCC(F)(F)F)c12` [Compound P-4052, [6-[(4,4-difluorocyclohexyl)amino]-5-fluoro-3-pyridyl]-[4-(2,2,2-trifluoroethylamino)-7H-pyrrolo[2,3-d]pyrimidin-5-yl]methanone], the IC50 was less than 1000 nM on BCR-NTRK1 BaF3 cells, more than 1000 nM at BCR-KIT BaF3 cells, less than 1000 nM on BCR-FMS BaF3 cells and less than 1000 nM at BCR-NTRK2 BaF3 cells.
`O=C(c1cnc(NC2CCC(F)(F)CC2)c(F)c1)c1c[nH]c2ncnc(NC3CC3)c12` [Compound P-4053, [4-(cyclopropylamino)-7H-pyrrolo[2,3-d]pyrimidin-5-yl]-[6-[(4,4-difluorocyclohexyl)amino]-5-fluoro-3-pyridyl]methanone]: the IC50 was less than 10 nM on BCR-NTRK1 BaF3 cells, less than 1000 nM on BCR-KIT BaF3 cells, less than 1000 nM on BCR-FMS BaF3 cells and less than 10 nM on BCR-NTRK2 BaF3 cells.
With `CNc1ncnc2[nH]cc(C(=O)c3cnc(NC4CCC(F)(F)CC4)c(F)c3)c12` [Compound P-4054, [6-[(4,4-difluorocyclohexyl)amino]-5-fluoro-3-pyridyl]-[4-(methylamino)-7H-pyrrolo[2,3-d]pyrimidin-5-yl]methanone], the IC50 at BCR-NTRK1 BaF3 cells, on BCR-KIT BaF3 cells, on BCR-FMS BaF3 cells and on BCR-NTRK2 BaF3 cells was less than 1000 nM in each case.
